Assay results as given in US12714714B2, “Combination therapy for treating executive function disorders” (Anaka Pharmaceuticals, Inc., priority 2021, dated 2026).
“And” between values parts separate entries of the source, which are not always exact repeats. Identical values can stand only once.

Columns and labels:
Severe ADHD = assay: Case study A: (Example 3); type: in vivo, human
Description: (§1) The combination of lacosamide and oxcarbazepine has been administered to three additional patients with various symptoms associated with executive function disorder. The combination of lacosamide and oxcarbazepine was successful in alleviating different symptoms of executive function disorder.

[1] = system: children who take methylphenidate; details: cited from earlier work
GABA transaminase = GABA transaminase (Homo sapiens, UniProt P80404); details: cited from earlier work
[2] = system: patients suffering from ADHD; assay: TONI-2 nonverbal reasoning test (Example 1); type: in vivo, human
Description: (§2) Patients were monitored clinically every week, during the whole duration of the study. They were also monitored on their pedagogic condition and evolution: before any treatment, mid-term and by the end of the lacosamide monotherapy and combination treatment. In addition, the patients were monitored neuropsychologicaly through the administration of different tests, pre- and post-treatment. A basal measure of their executive capabilities was established before any treatment.
(§3) The results of neuropsychological tests for lacosamide monotherapy and lacosamide and oxcarbazepine combination therapy were evaluated.

[3] = system: potassium or calcium currents; details: cited from earlier work
[4] = system: AMPA, kainate, NMDA, GABAA, GABAB, dopaminergic, serotonergic, adrenergic, muscarinic or cannabinoid receptors; details: cited from earlier work
[5] = system: voltage-gated sodium channels; details: cited from earlier work
[6] = system: patients suffering from ADHD; assay: Conners' Continuous Performance Test CPT-2 (Example 1); type: in vivo, human
Description: as §2
The results of neuropsychological tests for lacosamide monotherapy and lacosamide and oxcarbazepine combination therapy were evaluated. […] The other patient had similar results for monotherapy and combination treatment.

[7] = system: patients suffering from ADHD; assay: Stroop test (Example 1); type: in vivo, human
Description: as §2, §3

[8] = system: patients suffering from ADHD; assay: Determination of clinically effective dose, lacosamide monotherapy vs combination therapy (Example 1); type: in vivo, human; details: for Clinically effective dose of lacosamide: in monotherapy vs in combination therapy with oxcarbazepine
Procedure: (§4) The effects of lacosamide monotherapy were tested in three patients (two boys; and one child) suffering from ADHD over the period of 6 months. After the period of 6 months, the treatment was discontinued for 45 days. Next, the three patients were treated with a combination of lacosamide and oxcarbazepine for a period of 3 months. The results of monotherapy and combination therapy were compared.
as §2
(§5) Initially, a dose of 50 mg/12 hrs of lacosamide was administered to every patient. Through the study, the dose of lacosamide was increased (by 100 mg per week) to […] for every patient, following clinical response (on attention capacity, sleep, tiredness, mood stability, comprehension and general cognitive improvement).
Initially, a dose of 50 mg/12 hrs of lacosamide and a dose of 300 mg/12 hrs of oxcarbazepine was administered to every patient. Through the study, the dose of lacosamide was increased (by 100 mg per week) to 200 mg/12 hrs for every patient, following clinical response (attention capacity, sleep, tiredness, mood stability, comprehension and general cognitive improvement). […] The dose for oxcarbazepine was increased in week 7 to 450 mg/12 hrs for every patient, maintaining the previously reached respective doses for lacosamide.
Starting from this initial dose (50 mg/12 hs), the dose of lacosamide was adjusted to reflect clinically effective dose, based on clinical signs. Lacosamide was initially raised by 100 mg/24 hs in two takes. The highest dose of lacosamide was 400 mg/24 hs. In the combination therapy, oxcarbazepine was raised from 600 mg to 900 mg for all participants after 6 weeks, regardless of their lacosamide dosage.
The final dosage of lacosamide and oxcarbazepine was established based on patients' clinical results for executive dysfunction and the neurophysiological symptoms (e.g. hyperactivity, enuresis, and lethargy).

[9] = system: reuptake of norepinephrine, dopamine, and serotonin; details: cited from earlier work
[10] = system: patients suffering from ADHD; assay: Clinical evolution under treatment, weekly clinical and pedagogic monitoring (Example 1); type: in vivo, human
Procedure: as §4, §2
The treatment was delivered twice a day and went on for at least 3 months.
as §5
Initially, a dose of 50 mg/12 hrs of lacosamide and a dose of 300 mg/12 hrs of oxcarbazepine was administered to every patient. Through the study, the dose of lacosamide was increased (by 100 mg per week) to 200 mg/12 hrs for every patient, following clinical response (attention capacity, sleep, tiredness, mood stability, comprehension and general cognitive improvement). In response to clinical presentation of all three patients, the dose of lacosamide was decreased to 100 mg/12 hrs and maintained thereafter. The dose for oxcarbazepine was increased in week 7 to 450 mg/12 hrs for every patient, maintaining the previously reached respective doses for lacosamide.

[11] = system: patients suffering from ADHD; assay: WCST (Example 1); type: in vivo, human
Description: as §2, §3

Severe autism (Level 3) = assay: Case Study C: (Example 3); type: in vivo, human
Description: as §1

[12] = patient 001, October 2020 = lacosamide monotherapy, December 2020 = combination therapy
[13] = patient 002, October 2020 = lacosamide monotherapy, December 2020 = combination therapy
[14] = patient 003, October 2020 = after 6 months lacosamide alone, December 2020 = after 3 months combined therapy
[15] = patient 003, table: December 2020, combined therapy, text b168: monotherapy vs combined therapy

GABA transaminase, sequence (P80404 29-500, species assumed): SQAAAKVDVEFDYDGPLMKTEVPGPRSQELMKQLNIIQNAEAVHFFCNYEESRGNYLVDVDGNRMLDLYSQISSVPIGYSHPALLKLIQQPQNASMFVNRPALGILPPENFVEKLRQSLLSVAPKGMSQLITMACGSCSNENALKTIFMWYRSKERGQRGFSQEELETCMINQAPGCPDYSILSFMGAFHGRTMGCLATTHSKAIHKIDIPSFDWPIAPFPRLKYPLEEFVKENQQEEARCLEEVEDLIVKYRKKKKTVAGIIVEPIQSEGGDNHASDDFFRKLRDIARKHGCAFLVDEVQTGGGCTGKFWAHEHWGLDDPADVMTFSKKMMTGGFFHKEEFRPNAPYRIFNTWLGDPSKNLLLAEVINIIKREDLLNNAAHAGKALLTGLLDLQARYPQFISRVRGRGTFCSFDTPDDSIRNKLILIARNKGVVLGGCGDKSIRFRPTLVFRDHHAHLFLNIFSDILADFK

Compound: Nc1nnc(-c2cccc(Cl)c2Cl)c(N)n1 [Lamotrigine]
- Neurophysiological and Neuropsychological symptoms (Severe ADHD): combined therapy. This was not accomplished
- lasting improvement in treating subject's symptoms, drugs received prior to therapy used in this study (Severe ADHD): None showed lasting improvement in treating

Compound: COC(=O)C(c1ccccc1)C1CCCCN1 (stereo not drawn) [Methylphenidate]
- lasting improvement in treating subject's symptoms, drugs received prior to therapy used in this study (Severe ADHD): None showed lasting improvement in treating
- share of children who develop symptoms of obsessive-compulsive behaviour [1]: one third

Compound: CCCC(CCC)C(=O)O [Valproic Acid]
- lasting improvement in treating subject's symptoms, drugs received prior to therapy used in this study (Severe ADHD): None showed lasting improvement in treating

Compound: COC[C@@H](NC(C)=O)C(=O)NCc1ccccc1 [lacosamide, (2R)-2-(acetylamino)-N-benzyl-3-methoxypropanamide]
- inhibition of GABA transaminase (GABA transaminase): does not inhibit
- non-verbal reasoning capacity ([2]; Case 003, after 6 months Lacosamide monotherapy vs after combined therapy): 95 points
- TONI-2 Nonverbal Reasoning Ability, Level (CI) [2, 12]: CI-111
- TONI-2 Nonverbal Reasoning Ability, Severity Range [2, 12]: 17/55
- TONI-2 Nonverbal Reasoning Ability, Level (CI) [2, 13]: CI-104
- TONI-2 Nonverbal Reasoning Ability, Severity Range [2, 13]: 28/55
- TONI-2 Nonverbal Reasoning Ability, Level (CI) [2, 14]: CI-95
- TONI-2 Nonverbal Reasoning Ability, Severity Range [2, 14]: 19/55
- block of potassium or calcium currents [3]: does not block
- effect on AMPA, kainate, NMDA, GABAA, GABAB or dopaminergic, serotonergic, adrenergic, muscarinic or cannabinoid receptors [4]: does not affect
- fast inactivation of voltage-gated sodium channels [5]: without affecting
- slow inactivation of voltage-gated sodium channels [5]: enhances
- CPT-2-c Level [6, 12]: 1
- CPT-2-c impulsivity indicators (Severity Range) [6, 12]: No
- CPT-2-o Level [6, 12]: Clinical
- CPT-2-o Severity Range, score [6, 12]: 76.92%
- CPT-2-o inattention indicators [6, 12]: 6
- CPT-2-o indicators within limitations in surveillance [6, 12]: 2 indicators
- CPT-2-o Actual Interpretation ([6]; patient 001, table: December 2020, combination therapy, text b159: first vs second evaluation): Severe Impairment
- CPT-2-c Level [6, 13]: 2
- CPT-2-c impulsivity indicators (Severity Range) [6, 13]: 1 impulsivity
- CPT-2-o Level [6, 13]: Non
- CPT-2-o Severity Range, score [6, 13]: 37.01%
- CPT-2-o inattention indicators [6, 13]: 2 inattention
- CPT-2-c Level [6, 14]: 2
- CPT-2-c impulsivity indicators (Severity Range) [6, 14]: 1 impulsivity
- CPT-2-o Level [6, 14]: Clinical
- CPT-2-o Severity Range, score [6, 14]: 50%
- CPT-2-o inattention indicators [6, 14]: (6 inattention
- Stroop-c Level [7, 12]: 1
- Stroop-c Nominative capacity, Severity Range [7, 12]: 43/100
- Stroop-c/p Level [7, 12]: 1
- Stroop-c/p Resistance to Perseveration, Severity Range [7, 12]: 18/100
- Stroop-p Level [7, 12]: 2
- Stroop-p Nominative capacity, Severity Range [7, 12]: 51 and 51/100
- Stroop-p Actual Interpretation ([7]; patient 001, table: December 2020, combination therapy, text b160: before vs after): Slight Impairment
- Stroop-c Level [7, 13]: 3
- Stroop-c Nominative capacity, Severity Range [7, 13]: 40/100
- Stroop-c/p Level [7, 13]: 2
- Stroop-c/p Resistance to Perseveration, Severity Range [7, 13]: 30/100
- Stroop-p Level [7, 13]: 4
- Stroop-p Nominative capacity, Severity Range [7, 13]: 32/100
- Stroop-c Level [7, 14]: 2
- Stroop-c Nominative capacity, Severity Range [7, 14]: 51/100
- Stroop-c/p Level [7, 14]: 3
- Stroop-c/p Resistance to Perseveration, Severity Range [7, 14]: 21/100
- Stroop-p Level [7, 14]: 3
- Stroop-p Nominative capacity, Severity Range [7, 14]: 51/100
- clinically effective dose of lacosamide in monotherapy ([8]; 2 patients): 600 mg per day
- Clinically effective dose of lacosamide ([8]; Patient 1): 600 mg/day
- Clinically effective dose of lacosamide ([8]; Patient 2): 600 mg/day
- Clinically effective dose of lacosamide ([8]; Patient 3): 350 mg/day
- clinically effective dose of lacosamide in monotherapy ([8]; one patient): 350 mg
- modulation of the reuptake of neurotransmitters including norepinephrine, dopamine, and serotonin [9]: does not modulate
- mood instability (aggressive behaviour towards others, deliberately contained anger, sadness) ([10]; ADHD patients): only partially regressed
- cognitive disabilities ([10]; Case 001): improved many cognitive disabilities
- dysphasia, and extreme impulsiveness ([10]; Case 001): remained unchanged
- pedagogic evolution (Comprehensive Reading) ([10]; Case 002): never obtained
- ability to speak ([10]; Cases 002 and 003): unaffected
- cognitive disability ([10]; Cases 002 and 003): improved under lacosamide alone, but the degree of the disability never really disappeared
- hyperactivity regulation (severe hyperkinesia) ([10]; the one of 3 ADHD patients with hyperkinesia): did not improve
- enuresis episodes ([10]; the two patients that suffered from this symptom): partially stopped
- lethargic situations ([10]; two patients with absence of energy and tense tiredness): disappeared
- WCST Cognitive flexibility, Level [11, 12]: 1
- WCST Cognitive flexibility, persistent errors [11, 12]: 24 persistent
- WCST Reasoning (Abstraction Categorization), Level [11, 12]: 2
- WCST Reasoning (Abstraction Categorization), categories completed [11, 12]: 3 categories
- WCST Cognitive flexibility, Level [11, 13]: 0
- WCST Cognitive flexibility, persistent errors [11, 13]: 5 persistent
- WCST Reasoning (Abstraction Categorization), Level [11, 13]: 0
- WCST Reasoning (Abstraction Categorization), categories completed [11, 13]: 8 categories
- WCST Cognitive flexibility, Level [11, 14]: 2
- WCST Cognitive flexibility, persistent errors [11, 14]: 23 persistent
- WCST Reasoning (Abstraction Categorization), Level [11, 14]: 2
- WCST Reasoning (Abstraction Categorization), categories completed [11, 14]: 4 categories
- WCST Cognitive flexibility, interpretation [11, 15]: Slight
- WCST Reasoning (Abstraction Categorization), interpretation [11, 15]: Slight Impairment

Compound: NC(=O)N1c2ccccc2CC(=O)c2ccccc21 [oxcarbazepine, 5-oxo-6H-benzo[b][1]benzazepine-11-carboxamide]
- aggressive behavior and lack of interactivity with other members of the household (Severe autism (Level 3)): attention. They maintained aggressive
- delivery of the desired therapeutic result (Severe autism (Level 3)): Oxcarbazepine alone was not sufficient to
- hyperkinesia and impulsiveness (Severe autism (Level 3)): Minor improvement to subject's hyper-
- sleeping pattern (Severe autism (Level 3)): instability remained in sleeping pattern
- way they behaved during awake moments, quality of their day's attention (Severe autism (Level 3)): not approve in the way they behaved during
